Results taken from ChEMBL document CHEMBL4190380, “Preliminary in vitro and in vivo investigation of a potent platelet derived growth factor receptor (PDGFR) family kinase inhibitor” (Bioorg Med Chem Lett, 2018).
The source made the active and inactive calls. No cut-off for these calls is given here.

Assays:
P815 [1] = test: Cytotoxicity in mouse P815 cells expressing KIT D814Y mutant assessed as reduction in cell viability incubated for 48 hrs by MTT assay; assay type: functional, cell-based; conditions: P815, 48 h
[2] = system: Mast/stem cell growth factor receptor Kit (Mus musculus), P05532 [D814Y]; test: Inhibition of KIT D814Y mutant in mouse P815 cells assessed as reduction in STAT3 Tyr705 phosphorylation at 500 nM to 5 uM by Western blot method; assay type: cell-based
Chain of Mast/stem cell growth factor receptor Kit (Mus musculus), P05532 [D814Y] (P05532 with tags, fused parts or gaps D814Y): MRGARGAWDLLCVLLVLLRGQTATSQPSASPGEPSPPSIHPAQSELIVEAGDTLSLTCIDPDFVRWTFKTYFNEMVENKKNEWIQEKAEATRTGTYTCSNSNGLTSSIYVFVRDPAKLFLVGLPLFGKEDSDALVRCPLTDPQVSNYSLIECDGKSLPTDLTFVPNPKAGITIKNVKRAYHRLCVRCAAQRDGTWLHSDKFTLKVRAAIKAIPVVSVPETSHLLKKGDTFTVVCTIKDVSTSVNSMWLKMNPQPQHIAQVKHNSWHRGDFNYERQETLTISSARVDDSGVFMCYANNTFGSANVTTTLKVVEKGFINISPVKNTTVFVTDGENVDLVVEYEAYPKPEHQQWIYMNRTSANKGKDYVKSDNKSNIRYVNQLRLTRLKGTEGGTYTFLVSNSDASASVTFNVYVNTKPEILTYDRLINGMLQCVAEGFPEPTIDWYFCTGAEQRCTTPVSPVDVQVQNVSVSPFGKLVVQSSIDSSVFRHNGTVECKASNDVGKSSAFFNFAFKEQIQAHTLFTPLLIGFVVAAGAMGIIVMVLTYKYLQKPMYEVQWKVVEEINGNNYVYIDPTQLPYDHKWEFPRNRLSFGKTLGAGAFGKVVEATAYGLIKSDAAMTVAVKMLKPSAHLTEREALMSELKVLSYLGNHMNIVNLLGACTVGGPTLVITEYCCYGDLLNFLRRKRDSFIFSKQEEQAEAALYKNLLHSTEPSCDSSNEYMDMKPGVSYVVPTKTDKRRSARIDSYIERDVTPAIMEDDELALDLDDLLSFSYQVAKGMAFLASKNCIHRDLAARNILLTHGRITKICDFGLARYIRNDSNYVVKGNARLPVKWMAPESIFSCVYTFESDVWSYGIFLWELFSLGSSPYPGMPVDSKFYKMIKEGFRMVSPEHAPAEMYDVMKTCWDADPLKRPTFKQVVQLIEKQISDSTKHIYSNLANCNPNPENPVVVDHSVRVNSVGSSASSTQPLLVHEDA

P815 [3] = test: Toxicity in mouse P815 cells expressing KIT D814Y mutant assessed as reduction in total STAT3 protein level at 5 uM by Western blot method; assay type: cell-based; conditions: p815, 5 µM
Mus musculus [4] = test: In-vivo suppression of PDGFR signalling in C57BL/6 mouse assessed as retardation of hair re-growth at 75 mg/kg, ip administered once daily for 17 days by photography; assay type: functional, organism-based
Mus musculus [5] = test: Toxicity in C57BL/6 mouse assessed as body weight loss at 75 mg/kg, ip for 17 days; assay type: organism-based; conditions: in vivo, 408 h
Mus musculus [6] = test: In-vivo suppression of KIT signalling in C57BL/6 mouse assessed as hair depigmentation at 75 mg/kg, ip administered once daily for 17 days by photography; assay type: functional, organism-based
[7] = biological target: Platelet-derived growth factor receptor beta (Homo sapiens, UniProt P09619); test: Binding affinity to PDGFRbeta (unknown origin)
Chain of Platelet-derived growth factor receptor beta (P09619 whole entry): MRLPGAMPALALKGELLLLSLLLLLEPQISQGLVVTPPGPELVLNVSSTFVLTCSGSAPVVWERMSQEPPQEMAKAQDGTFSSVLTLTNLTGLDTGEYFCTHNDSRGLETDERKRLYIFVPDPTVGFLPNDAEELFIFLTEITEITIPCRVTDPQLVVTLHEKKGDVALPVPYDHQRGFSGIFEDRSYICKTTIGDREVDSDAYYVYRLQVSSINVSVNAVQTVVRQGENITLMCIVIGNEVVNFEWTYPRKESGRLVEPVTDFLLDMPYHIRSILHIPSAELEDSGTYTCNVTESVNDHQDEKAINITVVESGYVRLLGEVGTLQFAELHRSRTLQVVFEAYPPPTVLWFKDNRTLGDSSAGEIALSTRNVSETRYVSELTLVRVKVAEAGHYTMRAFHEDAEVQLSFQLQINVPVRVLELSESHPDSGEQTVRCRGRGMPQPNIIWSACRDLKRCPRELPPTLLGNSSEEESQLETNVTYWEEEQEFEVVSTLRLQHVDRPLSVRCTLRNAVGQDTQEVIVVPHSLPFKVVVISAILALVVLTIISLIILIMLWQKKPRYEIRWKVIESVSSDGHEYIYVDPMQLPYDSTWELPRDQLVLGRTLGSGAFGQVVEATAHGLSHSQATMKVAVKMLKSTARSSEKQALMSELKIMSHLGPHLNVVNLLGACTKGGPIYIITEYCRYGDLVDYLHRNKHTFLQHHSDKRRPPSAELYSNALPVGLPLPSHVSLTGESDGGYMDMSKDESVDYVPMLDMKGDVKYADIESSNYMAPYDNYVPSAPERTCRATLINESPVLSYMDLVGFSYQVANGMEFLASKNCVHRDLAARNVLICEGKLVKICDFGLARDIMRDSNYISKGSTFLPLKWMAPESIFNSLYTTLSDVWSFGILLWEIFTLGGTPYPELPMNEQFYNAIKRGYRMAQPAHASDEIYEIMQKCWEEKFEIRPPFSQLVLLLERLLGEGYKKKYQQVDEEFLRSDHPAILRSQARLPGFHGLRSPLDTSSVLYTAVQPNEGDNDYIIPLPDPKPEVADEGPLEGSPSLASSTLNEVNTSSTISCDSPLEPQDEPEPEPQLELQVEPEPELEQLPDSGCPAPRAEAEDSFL

Mus musculus [8] = test: Toxicity in C57BL/6 mouse assessed as induction of mouse mortality at 400 mg/kg, ip for 17 days measured on day 0; assay type: organism-based; conditions: in vivo, 408 h
P815 [9] = test: Induction of apoptosis in mouse P815 cells expressing KIT D814Y mutant assessed as reduction in pro-caspase-3 protein level at 500 nM to 5 uM by Western blot method; assay type: functional, cell-based

Compound	IC50 (P815 [1])	inhibition [2]	Activity (P815 [3])	Activity (Mus musculus [4])	Activity (Mus musculus [5])	Activity (Mus musculus [6])	Kd [7]	Activity (Mus musculus [8])	Activity (P815 [9])
COc1cc2c(N3CCN(C(=O)Nc4ccc(OC(C)C)cc4)CC3)ncnc2cc1OCCCN1CCCCC1 [TANDUTINIB]	600 nM	–	–	–	–	–	–	–	–
COCCOc1cc2ncnc(N3CCN(c4ncc(Cc5ccccc5)cn4)CC3)c2cc1OCCOC	182 nM	Active	Toxic	Active	10%	inactive	8 nM	Toxic	Dose-dependent effect
